According to ChEMBL document CHEMBL1821572, “Discovery of a novel series of selective HCN1 blockers” (Bioorg Med Chem Lett, 2011):

Experiments:
[1] = species: Mus musculus; test: Toxicity in C57BL/6 mouse assessed as induction of bradycardia after 50 mins by ECG study; format: organism-based; conditions: in vivo
[2] = target: T1, Potassium/sodium hyperpolarization-activated cyclic nucleotide-gated channel 1 (Homo sapiens, UniProt O60741); test: Inhibition of human HCN1 heterologously expressed in HEK-293 cells after 30 mins by VIPR assay; format: cell-based, HEK293
T1 sequence (O60741 whole entry): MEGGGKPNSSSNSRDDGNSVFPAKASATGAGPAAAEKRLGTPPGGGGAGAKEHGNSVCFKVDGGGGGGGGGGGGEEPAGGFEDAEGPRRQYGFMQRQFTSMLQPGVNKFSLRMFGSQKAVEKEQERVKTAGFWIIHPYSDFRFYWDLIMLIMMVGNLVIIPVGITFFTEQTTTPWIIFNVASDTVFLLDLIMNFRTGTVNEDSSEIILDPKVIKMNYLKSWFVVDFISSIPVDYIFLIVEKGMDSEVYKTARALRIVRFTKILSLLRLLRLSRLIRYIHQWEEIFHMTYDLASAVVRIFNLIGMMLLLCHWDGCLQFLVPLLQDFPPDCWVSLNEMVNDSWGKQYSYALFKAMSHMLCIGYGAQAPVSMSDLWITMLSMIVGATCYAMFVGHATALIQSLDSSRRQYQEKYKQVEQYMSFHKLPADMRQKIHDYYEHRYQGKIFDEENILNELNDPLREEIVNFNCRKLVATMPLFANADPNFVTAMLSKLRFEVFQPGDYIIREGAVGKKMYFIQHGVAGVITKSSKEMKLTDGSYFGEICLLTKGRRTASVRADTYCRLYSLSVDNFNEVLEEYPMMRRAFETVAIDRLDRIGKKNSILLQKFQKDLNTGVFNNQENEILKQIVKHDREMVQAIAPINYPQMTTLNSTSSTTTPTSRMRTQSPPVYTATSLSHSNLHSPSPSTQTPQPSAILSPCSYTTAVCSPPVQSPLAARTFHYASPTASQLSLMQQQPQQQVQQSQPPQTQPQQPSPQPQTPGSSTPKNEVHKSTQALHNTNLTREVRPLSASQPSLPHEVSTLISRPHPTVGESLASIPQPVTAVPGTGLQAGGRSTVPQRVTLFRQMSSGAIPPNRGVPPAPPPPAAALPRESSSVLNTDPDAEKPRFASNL

[3] = target: T2, Potassium/sodium hyperpolarization-activated cyclic nucleotide-gated channel 4 (Homo sapiens, UniProt Q9Y3Q4); test: Inhibition of human HCN4 heterologously expressed in HEK-293 cells after 30 mins by VIPR assay; format: cell-based, HEK293
T2 sequence (Q9Y3Q4 whole entry): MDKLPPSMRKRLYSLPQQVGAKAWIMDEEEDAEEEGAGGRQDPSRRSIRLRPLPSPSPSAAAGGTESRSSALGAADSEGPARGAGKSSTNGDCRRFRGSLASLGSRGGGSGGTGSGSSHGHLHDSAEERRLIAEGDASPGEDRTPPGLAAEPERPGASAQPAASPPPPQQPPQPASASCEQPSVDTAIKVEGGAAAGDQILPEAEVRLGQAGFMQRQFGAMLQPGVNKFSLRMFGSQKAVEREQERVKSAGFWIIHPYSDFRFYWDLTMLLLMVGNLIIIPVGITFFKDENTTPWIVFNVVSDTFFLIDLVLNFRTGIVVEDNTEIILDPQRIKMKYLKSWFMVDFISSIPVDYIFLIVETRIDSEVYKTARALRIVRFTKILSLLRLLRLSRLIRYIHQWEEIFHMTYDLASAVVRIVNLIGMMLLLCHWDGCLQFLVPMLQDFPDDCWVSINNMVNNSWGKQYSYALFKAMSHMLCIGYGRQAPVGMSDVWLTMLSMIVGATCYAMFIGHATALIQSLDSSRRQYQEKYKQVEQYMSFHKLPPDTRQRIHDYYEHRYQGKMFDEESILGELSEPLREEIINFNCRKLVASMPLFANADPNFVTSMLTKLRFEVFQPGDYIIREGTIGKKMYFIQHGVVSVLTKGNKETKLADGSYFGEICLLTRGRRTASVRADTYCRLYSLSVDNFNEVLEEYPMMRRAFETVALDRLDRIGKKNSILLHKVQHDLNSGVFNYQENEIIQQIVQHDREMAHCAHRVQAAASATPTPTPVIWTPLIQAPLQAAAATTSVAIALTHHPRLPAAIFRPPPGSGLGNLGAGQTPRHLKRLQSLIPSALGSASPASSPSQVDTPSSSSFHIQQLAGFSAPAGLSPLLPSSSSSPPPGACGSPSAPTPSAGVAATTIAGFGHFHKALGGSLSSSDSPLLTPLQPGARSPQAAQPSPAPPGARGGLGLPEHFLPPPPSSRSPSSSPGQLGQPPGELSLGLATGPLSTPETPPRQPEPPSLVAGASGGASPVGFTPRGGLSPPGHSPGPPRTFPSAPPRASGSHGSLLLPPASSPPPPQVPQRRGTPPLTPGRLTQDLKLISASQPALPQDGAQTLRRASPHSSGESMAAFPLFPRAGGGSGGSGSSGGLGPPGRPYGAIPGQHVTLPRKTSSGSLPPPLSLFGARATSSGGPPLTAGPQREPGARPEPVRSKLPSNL

[4] = test system: Mus musculus; test: Antiallodynic activity in ip dosed C57BL/6 mouse spared-nerve injury model assessed as reduction of tactile allodynia after 60 mins; format: functional; conditions: C57BL/6, ip, 1 h
[5] = species: Homo sapiens; test: Selectivity for human HCN1 over human HCN4
[6] = Half life in human liver microsomes; format: ADME, Microsome
[7] = species: Homo sapiens; test: Selectivity for human HCN1 over human HCN2

SMILES	IC50 [2]	IC50 [3]	Selectivity ratio [5]	also measured
CCN(c1ccccc1)c1cc(NC)[n+](C)c(C)n1.[Cl-]	158 nM	31.6 nM		ED20 [1]: 1.3 mg/kg; ED50 [4]: 3 mg/kg
CCOc1ccccc1C(=O)NCC1(N2CCN(C)CC2)CCCC1	398 nM	5010 nM		
COc1ccc(C(=O)NCC2(N3CCN(C)CC3)Cc3ccccc3C2)cc1	100000 nM	> 200000 nM		
COc1cccc(C(=O)NCC2(N3CCN(C)CC3)Cc3ccccc3C2)c1	63100 nM	> 200000 nM		
COc1ccccc1C(=O)NCC1(N2CCN(C(C)C)CC2)CCCCC1	31.6 nM	794 nM	10	
Cc1ccccc1C(=O)NCC1(N2CCN(C)CC2)CCCCC1	63100 nM	> 200000 nM	10	
CCOc1ccccc1C(=O)NCC1(N2CCN(C(C)C)CC2)Cc2ccccc2C1	631 nM	3160 nM		
COc1ccccc1C(=O)NCC1(N2CCN(C)CC2)CCc2ccccc2C1 (configuration not stated)	1580 nM	6310 nM		
CCOc1ccccc1C(=O)NCC1(N2CCN(C3CC3)CC2)CCCCC1	50.1 nM	316 nM	10	
CCOc1ccccc1C(=O)NCC1(N2CCN(C)CC2)CCCCC1	126 nM	1260 nM	10	half-life [6]: 22 min
CN1CCN(C2(CNC(=O)c3ccccc3OCc3ccccc3)Cc3ccccc3C2)CC1	631 nM	2510 nM		
COc1ccccc1C(=O)NCC(c1ccc(C)cc1)N1CCN(C)CC1 (configuration not stated)	2510 nM	20000 nM		
COc1ccccc1C(=O)NCC1(N2CCN(C)CC2)CCCCC1	398 nM	5010 nM	10	
CN1CCN(C2(CNC(=O)c3ccccc3F)Cc3ccccc3C2)CC1	25100 nM	> 200000 nM		
CCOc1ccccc1C(=O)NCC1(N2CCN(C(C)C)CC2)CCOCC1	316 nM	3980 nM		
CN1CCN(C2(CNC(=O)c3ccccc3Cl)CCCCC2)CC1	> 200000 nM	31600 nM	10	
CCOc1ccccc1C(=O)NCC1(N2CCN(C)CC2)Cc2ccccc2C1	398 nM	5010 nM		

SMILES	IC50 [2]	IC50 [3]	Selectivity ratio [5]	also measured
CN1CCN(C2(CNC(=O)c3ccccc3OC(F)(F)F)Cc3ccccc3C2)CC1	25100 nM	> 200000 nM		
COc1ccccc1C(=O)NCC1(N2CCN(C)CC2)Cc2ccccc2C1	1260 nM	20000 nM		
CC(C)Oc1ccccc1C(=O)NCC1(N2CCN(C(C)C)CC2)CCCCC1	251 nM	1580 nM	10	
COc1ccccc1C(=O)NCC1(N2CCCCC2)Cc2ccccc2C1	50100 nM	> 200000 nM		
CCOc1ccccc1C(=O)NCC1(N2CCN(c3ccccc3)CC2)CCCCC1	> 200000 nM	100000 nM	10	
CN1CCN(C2(CNC(=O)c3ccccc3O)Cc3ccccc3C2)CC1	> 200000 nM	> 200000 nM		
CCOc1ccccc1C(=O)NCC1(N2CCN(CC)CC2)CCCCC1	31.6 nM	158 nM	10	
CCOc1ccccc1C(=O)NCC1(N2CCN(C3CCCC3)CC2)CCCCC1	200 nM	794 nM	10	
COc1ccc([C@@H](C)CN(C/C=C\CN2C=Cc3cc(OC)c(OC)cc3CC2=O)C/C=C\CN2C=Cc3cc(OC)c(OC)cc3CC2=O)cc1OC			> 150	Selectivity ratio [7]: 30
CCOc1ccccc1C(=O)NCC1(N2CCN(C(C)C)CC2)CCCCC1	15.8 nM	316 nM	10	
CCc1ccccc1C(=O)NCC1(N2CCN(C(C)C)CC2)CCCCC1	> 200000 nM	79400 nM	10	
COc1ccccc1C(=O)NCCN1CCN(C)CC1	> 200000 nM			pIC50 ([3]; hek293): > 3.7
CN1CCN(C2(CNC(=O)c3ccccc3Cl)Cc3ccccc3C2)CC1	20000 nM	158000 nM		
COc1ccccc1C(=O)NCC1(N2CCN(C(C)C)CC2)CCN(c2ccccc2)CC1	631 nM	5010 nM		
CCOc1ccccc1C(=O)NCC1(N2CCN(C3CCC3)CC2)CCCCC1	79.4 nM	794 nM	10	
CCOc1ccccc1C(=O)NCC1(N2CCCCC2)Cc2ccccc2C1	15800 nM	39800 nM		
